According to ChEMBL document CHEMBL5465560, “Selectivity Literature for EUbOPEN Chemogenomic Library” (2024):

What was measured:
[1] = target: Receptor tyrosine-protein kinase erbB-4 (Homo sapiens, UniProt Q15303); test: Selectivity interaction (KinomeScan (DiscoverX)) EUB0000595a ERBB4; details: at 10 µM
[2] = target: Serine/threonine-protein kinase MRCK alpha (Homo sapiens) (UniProt Q5VT25); details: at 10 µM
[3] = target: T1, Phosphatidylinositol 4,5-bisphosphate 3-kinase catalytic subunit delta isoform (Homo sapiens) (UniProt O00329); test: Selectivity interaction (KinomeScan (DiscoverX)) EUB0000045b PIK3CD
T1 sequence (whole entry): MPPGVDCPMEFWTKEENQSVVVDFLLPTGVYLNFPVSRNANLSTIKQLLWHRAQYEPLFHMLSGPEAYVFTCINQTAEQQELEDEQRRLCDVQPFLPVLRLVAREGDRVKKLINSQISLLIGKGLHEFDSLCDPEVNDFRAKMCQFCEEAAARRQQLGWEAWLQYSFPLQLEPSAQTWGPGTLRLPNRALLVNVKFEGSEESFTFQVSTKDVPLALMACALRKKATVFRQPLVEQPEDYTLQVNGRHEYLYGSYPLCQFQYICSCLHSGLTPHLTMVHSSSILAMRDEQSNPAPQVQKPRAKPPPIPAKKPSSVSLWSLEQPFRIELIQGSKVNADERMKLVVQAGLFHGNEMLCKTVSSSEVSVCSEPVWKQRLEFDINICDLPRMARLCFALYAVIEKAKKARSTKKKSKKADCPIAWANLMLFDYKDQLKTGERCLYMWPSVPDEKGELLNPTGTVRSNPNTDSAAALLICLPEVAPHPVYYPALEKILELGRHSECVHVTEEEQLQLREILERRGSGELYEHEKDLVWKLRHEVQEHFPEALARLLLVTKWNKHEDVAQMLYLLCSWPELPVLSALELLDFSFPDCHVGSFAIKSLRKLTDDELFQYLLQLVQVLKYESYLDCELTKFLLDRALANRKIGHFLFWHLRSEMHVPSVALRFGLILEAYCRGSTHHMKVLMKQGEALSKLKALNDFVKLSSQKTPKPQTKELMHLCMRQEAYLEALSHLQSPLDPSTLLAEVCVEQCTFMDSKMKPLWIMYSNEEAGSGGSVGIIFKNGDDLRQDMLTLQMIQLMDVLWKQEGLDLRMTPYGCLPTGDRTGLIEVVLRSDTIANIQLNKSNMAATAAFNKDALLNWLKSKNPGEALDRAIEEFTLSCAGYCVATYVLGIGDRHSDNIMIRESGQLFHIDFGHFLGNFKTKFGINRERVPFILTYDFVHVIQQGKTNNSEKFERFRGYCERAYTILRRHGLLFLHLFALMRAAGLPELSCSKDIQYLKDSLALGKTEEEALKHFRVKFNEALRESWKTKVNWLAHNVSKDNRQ

[4] = target: CDK18/Cyclin Y (Homo sapiens) (UniProt Q07002+Q8ND76); test: Selectivity interaction (Kinase panel (Z-LYTE Assay)) EUB0001632a CDK18; format: protein-complex assay; details: at 10 µM
Activated CDC42 kinase 1 = Activated CDC42 kinase 1 (Homo sapiens, UniProt Q07912); test: Selectivity interaction (KinomeScan (DiscoverX)) EUB0000666a TNK2; details: at 10 µM
[5] = target: T2, Megakaryocyte-associated tyrosine-protein kinase (Homo sapiens) (UniProt P42679); test: Selectivity interaction (ProQinase) EUB0000171b MATK
T2 sequence (whole entry): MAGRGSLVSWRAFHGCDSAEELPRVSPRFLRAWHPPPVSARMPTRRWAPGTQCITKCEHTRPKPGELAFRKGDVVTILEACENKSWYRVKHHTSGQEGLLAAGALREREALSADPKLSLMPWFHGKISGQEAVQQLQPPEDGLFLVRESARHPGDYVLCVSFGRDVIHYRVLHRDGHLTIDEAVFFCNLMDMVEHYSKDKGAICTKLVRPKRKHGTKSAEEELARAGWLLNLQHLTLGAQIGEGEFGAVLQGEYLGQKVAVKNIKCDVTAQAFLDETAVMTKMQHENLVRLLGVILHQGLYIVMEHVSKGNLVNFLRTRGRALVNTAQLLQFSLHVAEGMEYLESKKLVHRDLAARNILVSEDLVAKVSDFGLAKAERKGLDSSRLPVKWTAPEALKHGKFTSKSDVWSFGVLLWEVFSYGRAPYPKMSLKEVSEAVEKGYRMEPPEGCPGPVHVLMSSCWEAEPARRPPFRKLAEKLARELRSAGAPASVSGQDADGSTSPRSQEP

[6] = target: G protein-coupled receptor kinase 6 (Homo sapiens) (UniProt P43250); test: Selectivity interaction (ProQinase) EUB0000171b GRK6
[7] = target: cGMP-inhibited 3',5'-cyclic phosphodiesterase 3A (Homo sapiens, UniProt Q14432); test: Selectivity interaction (Eurofins safety panel) EUB0001564a PDE3A; details: at 10 µM
[8] = target: T3, Aurora kinase C (Homo sapiens) (UniProt Q9UQB9); test: Selectivity interaction (SelectScreen profiling (Invitrogen)) EUB0000607a AURKC; details: at 2 µM
T3 sequence (whole entry): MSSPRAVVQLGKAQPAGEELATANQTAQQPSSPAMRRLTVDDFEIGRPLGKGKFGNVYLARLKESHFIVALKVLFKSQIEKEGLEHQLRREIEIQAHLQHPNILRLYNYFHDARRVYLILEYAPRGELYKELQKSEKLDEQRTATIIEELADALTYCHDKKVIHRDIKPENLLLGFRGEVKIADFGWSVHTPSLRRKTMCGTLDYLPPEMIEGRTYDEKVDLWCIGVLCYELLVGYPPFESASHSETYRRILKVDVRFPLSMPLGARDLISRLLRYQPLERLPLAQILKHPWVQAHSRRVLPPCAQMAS

[9] = target: Ribosomal protein S6 kinase beta-1 (Homo sapiens, UniProt P23443); test: Selectivity interaction (ActivX KiNativ screen (kinase selectivity in THP-1 cell lysates)) EUB0000639a RPS6KB1; format: subcellular; details: lysate, at 0.01 µM
Chain of Ribosomal protein S6 kinase beta-1 (P23443 whole entry, looked up): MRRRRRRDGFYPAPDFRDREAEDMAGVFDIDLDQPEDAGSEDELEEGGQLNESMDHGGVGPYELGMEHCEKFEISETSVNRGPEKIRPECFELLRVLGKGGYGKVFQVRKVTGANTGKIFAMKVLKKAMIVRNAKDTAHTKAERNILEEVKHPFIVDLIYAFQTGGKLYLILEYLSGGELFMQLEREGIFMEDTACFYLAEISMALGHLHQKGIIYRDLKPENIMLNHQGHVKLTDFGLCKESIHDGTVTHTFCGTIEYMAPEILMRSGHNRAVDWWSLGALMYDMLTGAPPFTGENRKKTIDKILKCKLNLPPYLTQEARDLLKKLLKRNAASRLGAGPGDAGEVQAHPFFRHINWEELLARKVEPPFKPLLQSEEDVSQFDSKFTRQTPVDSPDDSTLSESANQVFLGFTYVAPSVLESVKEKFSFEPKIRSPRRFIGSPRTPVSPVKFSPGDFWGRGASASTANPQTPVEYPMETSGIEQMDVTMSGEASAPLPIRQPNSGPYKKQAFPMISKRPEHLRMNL

Chain of G protein-coupled receptor kinase 6 (Homo sapiens) (P43250 whole entry, looked up): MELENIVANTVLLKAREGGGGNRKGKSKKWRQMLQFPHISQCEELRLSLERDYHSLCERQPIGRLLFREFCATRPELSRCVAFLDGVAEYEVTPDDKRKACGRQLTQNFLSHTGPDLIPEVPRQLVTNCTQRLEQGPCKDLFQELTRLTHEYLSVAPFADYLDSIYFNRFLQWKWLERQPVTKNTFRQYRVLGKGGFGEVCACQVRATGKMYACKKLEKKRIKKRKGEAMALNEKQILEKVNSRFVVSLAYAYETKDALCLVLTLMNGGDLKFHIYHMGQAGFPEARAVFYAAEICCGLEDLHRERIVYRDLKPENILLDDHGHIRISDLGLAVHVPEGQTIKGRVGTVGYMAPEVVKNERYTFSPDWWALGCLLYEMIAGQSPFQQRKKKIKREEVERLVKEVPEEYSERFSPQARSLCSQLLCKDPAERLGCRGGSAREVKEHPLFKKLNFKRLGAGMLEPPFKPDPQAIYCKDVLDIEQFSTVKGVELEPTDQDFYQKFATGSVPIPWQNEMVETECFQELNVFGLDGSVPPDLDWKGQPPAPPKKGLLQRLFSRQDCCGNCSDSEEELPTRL
Chain of Activated CDC42 kinase 1 (Q07912 whole entry, looked up): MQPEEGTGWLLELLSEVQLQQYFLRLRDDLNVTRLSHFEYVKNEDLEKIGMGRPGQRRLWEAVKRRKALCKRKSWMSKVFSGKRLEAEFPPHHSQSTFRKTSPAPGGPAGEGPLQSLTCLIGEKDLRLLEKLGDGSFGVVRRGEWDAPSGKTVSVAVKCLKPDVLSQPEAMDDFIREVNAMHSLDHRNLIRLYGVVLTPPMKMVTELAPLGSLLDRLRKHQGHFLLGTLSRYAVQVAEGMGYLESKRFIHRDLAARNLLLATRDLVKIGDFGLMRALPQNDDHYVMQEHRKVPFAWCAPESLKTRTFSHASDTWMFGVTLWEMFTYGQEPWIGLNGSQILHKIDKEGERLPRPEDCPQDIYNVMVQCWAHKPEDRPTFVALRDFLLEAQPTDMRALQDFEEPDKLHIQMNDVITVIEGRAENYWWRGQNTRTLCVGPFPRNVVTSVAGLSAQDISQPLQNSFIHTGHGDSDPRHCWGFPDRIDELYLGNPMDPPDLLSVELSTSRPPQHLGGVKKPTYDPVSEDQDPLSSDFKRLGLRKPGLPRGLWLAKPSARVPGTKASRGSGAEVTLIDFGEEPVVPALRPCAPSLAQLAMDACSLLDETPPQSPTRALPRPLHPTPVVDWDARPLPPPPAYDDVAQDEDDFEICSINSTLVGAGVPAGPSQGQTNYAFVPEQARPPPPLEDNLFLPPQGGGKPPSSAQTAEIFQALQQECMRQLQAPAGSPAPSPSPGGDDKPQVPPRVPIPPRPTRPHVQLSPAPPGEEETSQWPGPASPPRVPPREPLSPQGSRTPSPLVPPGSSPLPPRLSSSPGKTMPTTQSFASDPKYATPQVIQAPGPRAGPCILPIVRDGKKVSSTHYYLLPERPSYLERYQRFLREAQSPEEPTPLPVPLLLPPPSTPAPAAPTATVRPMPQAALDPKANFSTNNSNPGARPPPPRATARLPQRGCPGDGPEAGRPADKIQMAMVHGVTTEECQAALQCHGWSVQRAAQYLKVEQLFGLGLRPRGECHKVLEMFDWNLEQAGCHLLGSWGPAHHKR
Chain of Receptor tyrosine-protein kinase erbB-4 (Q15303 whole entry): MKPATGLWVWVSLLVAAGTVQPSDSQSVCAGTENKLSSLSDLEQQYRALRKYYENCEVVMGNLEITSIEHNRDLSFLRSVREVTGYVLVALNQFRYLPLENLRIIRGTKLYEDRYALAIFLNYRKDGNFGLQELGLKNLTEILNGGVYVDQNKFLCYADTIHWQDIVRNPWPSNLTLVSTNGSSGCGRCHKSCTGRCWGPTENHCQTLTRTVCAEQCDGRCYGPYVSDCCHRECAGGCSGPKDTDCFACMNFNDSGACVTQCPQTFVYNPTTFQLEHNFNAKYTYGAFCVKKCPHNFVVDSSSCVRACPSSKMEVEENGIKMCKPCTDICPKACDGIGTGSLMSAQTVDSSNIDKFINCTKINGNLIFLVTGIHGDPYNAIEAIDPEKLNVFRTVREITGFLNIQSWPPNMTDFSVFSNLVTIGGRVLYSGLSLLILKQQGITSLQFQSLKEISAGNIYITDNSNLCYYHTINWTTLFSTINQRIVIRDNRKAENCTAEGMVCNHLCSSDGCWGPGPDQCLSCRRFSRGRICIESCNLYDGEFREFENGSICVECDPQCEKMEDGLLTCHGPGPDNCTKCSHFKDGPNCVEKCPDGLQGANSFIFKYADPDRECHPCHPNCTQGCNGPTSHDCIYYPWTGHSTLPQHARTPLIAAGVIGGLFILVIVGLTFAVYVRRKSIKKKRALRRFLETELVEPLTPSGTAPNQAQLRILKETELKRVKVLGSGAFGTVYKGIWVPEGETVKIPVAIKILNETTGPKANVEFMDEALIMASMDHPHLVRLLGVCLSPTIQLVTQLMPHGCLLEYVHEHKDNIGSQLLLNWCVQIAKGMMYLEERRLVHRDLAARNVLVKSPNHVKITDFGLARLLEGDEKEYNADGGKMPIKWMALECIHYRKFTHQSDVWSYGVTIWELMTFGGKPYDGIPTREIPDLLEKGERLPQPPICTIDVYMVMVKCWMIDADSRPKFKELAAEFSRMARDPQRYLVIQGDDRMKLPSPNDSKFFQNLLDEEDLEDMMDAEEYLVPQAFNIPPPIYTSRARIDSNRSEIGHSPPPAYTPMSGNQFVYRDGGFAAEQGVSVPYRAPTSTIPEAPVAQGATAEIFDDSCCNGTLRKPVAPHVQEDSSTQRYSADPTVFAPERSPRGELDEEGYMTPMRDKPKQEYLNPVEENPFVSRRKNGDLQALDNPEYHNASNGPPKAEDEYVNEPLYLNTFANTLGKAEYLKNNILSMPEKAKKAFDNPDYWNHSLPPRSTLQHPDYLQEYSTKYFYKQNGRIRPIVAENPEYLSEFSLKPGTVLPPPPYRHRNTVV
Chain of cGMP-inhibited 3',5'-cyclic phosphodiesterase 3A (Q14432 whole entry): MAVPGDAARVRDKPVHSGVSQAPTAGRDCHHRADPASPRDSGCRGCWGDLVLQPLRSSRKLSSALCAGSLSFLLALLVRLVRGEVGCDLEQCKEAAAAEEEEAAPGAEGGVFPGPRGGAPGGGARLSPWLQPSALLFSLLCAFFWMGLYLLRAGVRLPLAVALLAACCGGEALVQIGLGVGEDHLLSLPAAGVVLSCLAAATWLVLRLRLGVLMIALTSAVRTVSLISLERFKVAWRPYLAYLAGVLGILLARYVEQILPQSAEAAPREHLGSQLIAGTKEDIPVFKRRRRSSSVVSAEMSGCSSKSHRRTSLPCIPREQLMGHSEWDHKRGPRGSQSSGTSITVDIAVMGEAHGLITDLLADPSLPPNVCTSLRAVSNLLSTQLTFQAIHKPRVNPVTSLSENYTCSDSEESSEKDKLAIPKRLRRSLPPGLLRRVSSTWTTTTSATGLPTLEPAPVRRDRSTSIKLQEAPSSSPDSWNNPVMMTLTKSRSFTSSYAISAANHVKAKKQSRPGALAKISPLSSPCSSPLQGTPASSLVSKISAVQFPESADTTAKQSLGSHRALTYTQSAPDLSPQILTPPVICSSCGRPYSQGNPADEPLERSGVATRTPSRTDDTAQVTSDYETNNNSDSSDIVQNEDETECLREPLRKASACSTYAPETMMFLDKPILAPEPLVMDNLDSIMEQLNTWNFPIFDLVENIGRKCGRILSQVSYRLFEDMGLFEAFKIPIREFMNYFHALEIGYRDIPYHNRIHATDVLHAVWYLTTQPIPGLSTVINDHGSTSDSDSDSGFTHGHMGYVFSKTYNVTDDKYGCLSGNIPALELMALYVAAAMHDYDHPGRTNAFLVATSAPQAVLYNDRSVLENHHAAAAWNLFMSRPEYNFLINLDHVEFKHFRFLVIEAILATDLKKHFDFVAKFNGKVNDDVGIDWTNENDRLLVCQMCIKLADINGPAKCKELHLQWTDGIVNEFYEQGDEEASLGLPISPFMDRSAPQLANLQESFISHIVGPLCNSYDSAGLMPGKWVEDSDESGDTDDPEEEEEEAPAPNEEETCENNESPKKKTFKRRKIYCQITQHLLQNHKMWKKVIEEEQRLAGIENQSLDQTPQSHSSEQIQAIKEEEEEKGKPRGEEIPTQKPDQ

## COCC(=O)NC/C=C/c1ccc2ncnc(Nc3ccc(Oc4ccc(C)nc4)c(C)c3)c2c1 [CP-724714]
[1]
  % of control: 0.9%
[2]
  % of control: 100%

## C=CC(=O)Nc1cc(-n2c(=O)ccc3cnc4ccc(-c5ccc(NS(C)(=O)=O)cc5)cc4c32)ccc1C
[3]; at 1 µM
  % of control: 73%
[3]; at 10 µM
  % of control: 100%

## Cn1cc(-n2cnc3c(NCc4nc5cc(Cl)c(Cl)cc5[nH]4)nc(N4CCOCC4)nc32)cn1
[4]
  % of control: 1.58%

## O=C(NOC[C@H](O)CO)c1ccc(F)c(F)c1Nc1ccc(I)cc1F
Activated CDC42 kinase 1
  % of control: 72%

## C=CC(=O)Nc1cccc(C(=O)Nc2ccc(Nc3cc(-c4[nH]c(SC)nc4C)ccn3)cc2)c1
[5]; at 1 µM
  % of control: 92%
[5]; at 5 µM
  % of control: 111%
[6]; at 1 µM
  % of control: 88%
[6]; at 5 µM
  % of control: 90%

## CC[C@@H](Nc1c(C#N)c(-c2ccc(-c3cccc(C)c3F)cc2)nc2cnccc12)C(=O)O [BAY-091]
[7]
  % of inhibition: 74%

## CNC(=O)Nc1ccc(-c2nc(N3CC4CCC(C3)O4)c3cnn(C4CCC5(CC4)OCCO5)c3n2)cc1
[8]
  % of inhibition: 4%

## CC[C@@H]1[C@H](F)C(=O)N[C@@H]1COc1nccc2cc(C(N)=O)c(OC)cc12 [ZIMLOVISERTIB]
[9]
  % of inhibition: -0.4%
